Assay results from paper PMC11207111, “Assessment of the Activity of Nitroisoxazole Derivatives against Trypanosoma cruzi” (Molecules, 2024).

How the values were obtained:
[1] = Cyclic voltammetry (reduction of the nitro group); assay type: physicochemical; design: key to −EpcI / −EpcII / −EpaII / −EpaI: potentials in V vs Ag/AgCl; |ΔEp|: unit not given here
Text: The chemistry mechanism of reduction in nitroisoxazole derivatives was investigated using cyclic voltammetry.
The peak near −1.32 V corresponds to a quasi-reversible one-electron transfer, according to the criteria of Nicholson–Shain [26] (Table 1), attributable to the species −NO2/NO2.− . The latter species stable anion radical at room temperature. […] An irreversible peak at −0.93 V to the mono-electronic transfer −HNO2/HNO2.− is observed, coupled with a chemical reaction associated with […] of the formed radical. This was evidenced by the addition of NaOH (1 M), which caused a decrease in the Ic peak (Figure 2c).
As previously described, an irreversible signal assigned to hydroxylamine oxidation to a nitroso derivative is also observed for N-acylhydrazones organometallic compounds with a pendant 5-nitrofuryl group. […] Compound 7, which has the least negative reduction potential, can be attributed to introducing a nitro group in the para position of the nitroisoxazole ring. This effect can also be observed in derivatives containing halogens in the same position.
Electrochemical characterization of the new compounds was performed through cyclic voltammetry (CV) on a 693 VA Metrohm instrument (Tokyo, Japan) equipped with a 694 VA Stand converter and 693 VA processor. Potentials were recorded against the Ag/AgCl reference electrode; a hanging drop of mercury (HDME) was used as a working electrode, and platinum was used as an auxiliary electrode. Tetrabutylammonium perchlorate (TBAP, 0.1 M) in DMSO was used as a supporting electrolyte under an N2 atmosphere at room temperature. Using Nicholson´s procedure, the Ipa/Ipc values (RNO2/RNO2^−) were measured from each cyclic voltammogram with a scan rate between 0.1 and 2.5 V/s.

[2] = ORAC-FL antioxidant capacity; details: relative to Trolox; phosphate buffer 75 mM, pH 7.4, 37 °C
Procedure: To corroborate the generation of the nitro radical, the antioxidant capacity of the series under study was determined by ORAC-FL methodology, employing a fluorescent probe to capture oxygen-centered radicals (Table 2). The ORAC-FL values of the studied compounds are close to the reference value of Trolox, indicating a low antioxidant capacity. For compounds (1-3), the presence of amino substituents decreases antioxidant activity due to their […] characteristics, preventing the presence of labile hydrogens. […] Compounds 4 and 10 present similar ORAC indexes as aromatic rings with high electron density insert the transfer of labile protons. Antioxidant capacity was determined using the ORAC-fluorescence methodology (ORAC-FL). The analysis used a 96-well white polystyrene plate reader (EnSpire multimode PerkinElmer, Waltham, MA, USA). The reaction was carried out in phosphate buffer (75 mM, pH 7.4). […] A blank with FL and AAPH, using dimethyl sulfoxide instead of the antioxidant solution, was used in each assay. […] The inhibitor capacity was expressed as ORAC-FL values and quantified by integrating the area under the curve (AUCNET). All reaction mixtures were prepared in triplicate, and at least three independent assays were performed for each sample. The area under the fluorescence decay curve (AUC) was calculated by integrating the fluorescence decay where F0 is the initial fluorescence read at 0 min, and F is the fluorescence read at the time. The AUCNET corresponding to the sample was calculated by subtracting the AUC corresponding to the blank. Data were processed using Origin […].5 SR2 (San Francisco, CA, USA). The ORAC-FL indices were calculated according to the following Equation (1): (1) ORAC-[…]]

[3] = test system: epimastigote of T. cruzi Dm28; assay: Trypanocidal activity (MTT) on epimastigotes; assay type: cell-based; details: Trypanosoma cruzi; for killing at 100 µM: 24 h, n.a = not active, read-out: % T. cruzi Epimastigote (trypanocidal effect)
Procedure: As a preliminary step, a study of nitroisoxazole derivatives on the epimastigote form of T. cruzi was performed. Despite the epimastigote form not being a clinical form present in mammals, its easy handling has allowed screening for the trypanocidal activity of various compounds. It is worth noting that, during the intracellular life cycle of the parasite, a form similar to the epimastigote, which is biochemically and morphologically identical to the form present in the vector, has been described. […] RPMI 1640 medium) for 24 h. […] The effects of the compounds on trypomastigote and Vero cell viability were evaluated by tetrazolium salt reduction assay (MTT). […] The plates were kept overnight at 37 °C (28 °C for epimastigotes), and the optical density (OD) was determined using a 96-well microplate reader (Vantaa, Finland) at 570 nm. Under these conditions, the OD is directly proportional to each well’s viable number of cells. The experiments were performed in triplicate across three different assays.

[4] = test system: trypomastigote of T. cruzi Dm28; assay: Trypanocidal activity (MTT) on trypomastigotes; assay type: cell-based; details: Trypanosoma cruzi; for killing at 100 µM: 24 h, n.a = not active, read-out: % T. cruzi Trypomastigote (trypanocidal effect); for IC50: T. cruzi Dm28, 24 h
Procedure: As a preliminary step, a study of nitroisoxazole derivatives on the epimastigote form of T. cruzi was performed. Despite the epimastigote form not being a clinical form present in mammals, its easy handling has allowed screening for the trypanocidal activity of various compounds. It is worth noting that, during the intracellular life cycle of the parasite, a form similar to the epimastigote, which is biochemically and morphologically identical to the form present in the vector, has been described. […] This is consistent with studies by Fonseca-Berzal et al. […] Additionally, compounds with higher activity have aromatic rings as substituents for nitroisoxazoles, confirming what was described Do […] [40]. […] It has also been determined that the presence of an isoxazole is essential for activity, as its aromatic structure contains a weak nitrogen-oxygen bond that, under different reaction conditions, can undergo ring cleavage, increasing activity. The results obtained on epimastigotes cannot be conclusive for determining potential Chagas agents, so conducting studies on the infective, extracellular, non-replicative trypomastigote form of T. cruzi present in humans is essential. […] RPMI 1640 medium) for 24 h. […] The effects of the compounds on trypomastigote and Vero cell viability were evaluated by tetrazolium salt reduction assay (MTT). […] The plates were kept overnight at 37 °C (28 °C for epimastigotes), and the optical density (OD) was determined using a 96-well microplate reader (Vantaa, Finland) at 570 nm. Under these conditions, the OD is directly proportional to each well's viable number of cells. The experiments were performed in triplicate across three different assays.

[5] = test system: Vero mammalian cells; assay: Cytotoxicity (MTT) on Vero cells; assay type: cell-based; details: Chlorocebus sabaeus, 24 h
Procedure: Additionally, the cytotoxicity of the compounds on VERO mammalian cells was assessed (Table 4). […] It is observed that the majority of the derivatives present considerable cytotoxicity. […] RPMI 1640 medium) for 24 h. […] The effects of the compounds on trypomastigote and Vero cell viability were evaluated by tetrazolium salt reduction assay (MTT). […] The plates were kept overnight at 37 °C (28 °C for epimastigotes), and the optical density (OD) was determined using a 96-well microplate reader (Vantaa, Finland) at 570 nm. Under these conditions, the OD is directly proportional to each well’s viable number of cells. The experiments were performed in triplicate across three different assays.

[6] = test system: T. cruzi trypomastigotes; assay: Generation of ROS (DCFH2-DA fluorescent probe); assay type: cell-based, Trypanosoma cruzi; details: 100 µM
Procedure: To generate radical species on T. cruzi trypomastigotes, intracellular free radicals were determined using the fluorescent probe dichlorofluorescein (DCF).
The cultures were incubated with a 20 µM DCFH2-DA solution for 15 min at 28 °C. Then, they were centrifuged at 3500 rpm and washed 2 times with phosphate buffer saline (PBS) pH 7.4. Cells loaded with DCFH2-DA were transferred to a Nunc® fluorescence 96-well plate (Thermo Fisher Scientific Inc., Waltham, MA, USA), where the nitroisoxazoles derivates were added at 100 µM. Fluorescence (exi: 488 nm, emi: 528 nm) was recorded for 40 min in a BioTek (Winooski, VT, USA) Synergy HT spectrofluorometer. The area under increase curves over time was determined using Oring 8 software, with areas normalized to control. Results are the means ± SD of three independent experiments.

[7] = cyclic voltammetry at 2.0 V/s, DMSO, 0.1 M TBAP, vs Ag/AgCl

SMILES	Ipa/Ipc ([1]; cyclic voltammetry at 2.0 V/s)	|ΔEp| ([1]; cyclic voltammetry at 2.0 V/s)	−EpaII [1, 7]	−EpcII [1, 7]	melting point	−EpaI [1, 7]	−EpcI [1, 7]	peak potential, quasi-reversible one-electron transfer −NO2/NO2.− ([1]; cyclic voltammogram, Figure 2a)	ORAC-FL Index [2]	killing at 100 µM [3]	IC50 ([3]; T. cruzi Dm28, 24 h, read-out: IC50 T. cruzi E (epimastigote))	killing at 100 µM [4]	IC50 [4]	IC50 [5]	ROS generation (DCF fluorescence intensity) ([6]; 40 min, vs control without compound)	ROS generation compared with Nfx ([6]; Figure 3)
O=CCc1ccc(Br)cc1 [Compound P2, 4-bromophenyl acetaldehyde]	–	–	–	–	–	–	–	–	–	5 ± 2%	–	–	–	–	–	–
Cc1noc(/C=C/N(C)C)c1[N+](=O)[O-] [Compound 1, (E)-N,N-Dimethyl-2-(3-methyl-4-nitroisoxazol-5-yl)ethen-1-amine]	−0.44	140	1.19	1.33	154 to 156 °C	–	–	–	0.9 ± 0.2	18 ± 1%	–	–	–	–	–	–
CC1CS(=O)(=O)CCN1/N=C/c1ccc([N+](=O)[O-])o1 (stereo not shown) [Nfx, nifurtimox, reference compound]	–	–	–	–	–	–	–	–	–	98.9 ± 0.3%	–	74 ± 1%	10.04 ± 0.1 µM	172.9 ± 0.1 µM	–	–
Cc1ccc(-n2cc(/C=C/c3onc(C)c3[N+](=O)[O-])c3ccccc32)cc1 [Compound 14, (E)-3-Methyl-4-nitro-5-(2-(1-(p-tolyl)-1H-indol-3-yl)vinyl)isoxazole]	−0.32	120	0.84	0.96	208 to 211 °C	–	0.72	–	0.4 ± 0.1	27 ± 2%	–	3 ± 1%	–	–	–	–
Cc1c(C)c2c(c(C)c1O)CCC(C)(C(=O)O)O2 (stereo not shown) [Trolox, reference compound]	–	–	–	–	–	–	–	–	1.00 ± 0.01	–	–	–	–	–	–	–
Cc1noc(C)c1[N+](=O)[O-] [Compound P1, 3,5-dimethyl-4-nitroisoxazole]	–	–	–	–	–	–	–	–	–	14 ± 3%	–	–	–	–	–	–
Cc1noc(/C=C/c2ccc([N+](=O)[O-])cc2)c1[N+](=O)[O-] [Compound 7, (E)-3-Methyl-4-nitro-5-(4-nitrostyryl)isoxazole]	−0.44	70	0.64	0.71	225 to 227 °C	–	–	–	0.57 ± 0.08	36 ± 2%	–	–	–	–	–	–
Cc1noc(/C=C/N2CCCC2)c1[N+](=O)[O-] [Compound 2, (E)-3-Methyl-4-nitro-5-(2-(pyrrolidin-1-yl)vinyl)isoxazole]	0.32	120	1.20	1.32	145 to 147 °C	–	–	~−1.32 V	0.14 ± 0.05	19 ± 3%	–	–	–	–	–	–

Further lines, with some results ahead:

Ipa/Ipc ([1]; cyclic voltammetry at 2.0 V/s)	|ΔEp| ([1]; cyclic voltammetry at 2.0 V/s)	−EpaII [1, 7]	−EpcII [1, 7]	melting point	−EpaI [1, 7]	−EpcI [1, 7]	peak potential, quasi-reversible one-electron transfer −NO2/NO2.− ([1]; cyclic voltammogram, Figure 2a)	SMILES	ORAC-FL Index [2]	killing at 100 µM [3]	IC50 ([3]; T. cruzi Dm28, 24 h, read-out: IC50 T. cruzi E (epimastigote))	killing at 100 µM [4]	IC50 [4]	IC50 [5]	ROS generation (DCF fluorescence intensity) ([6]; 40 min, vs control without compound)	ROS generation compared with Nfx ([6]; Figure 3)
−0.02	110	0.71	0.82	169 to 171 °C	–	–	–	Cc1noc(/C=C/c2ccc(F)cc2)c1[N+](=O)[O-] [Compound 5, (E)-5-(4-Fluorostyryl)-3-methyl-4-nitroisoxazole]	0.74 ± 0.05	47 ± 1%	400 ± 3 µM	19 ± 3%	> 400 µM	> 400 µM	increase in fluorescence intensity	more reactive oxygen species (ROS) than Nfx
−0.14	100	0.95	1.10	169 to 172 °C	0.70	0.80	–	Cc1noc(/C=C/c2ccccc2Br)c1[N+](=O)[O-] [Compound 15, (E)-5-(2-Bromostyryl)-3-methyl-4-nitroisoxazole]	0.8 ± 0.3	29 ± 2%	–	–	–	–	–	–
−0.09	90	0.80	0.89	176 to 178 °C	–	–	–	Cc1noc(/C=C/c2ccccc2)c1[N+](=O)[O-] [Compound 4, (E)-3-Methyl-4-nitro-5-styrylisoxazole]	0.33 ± 0.06	47 ± 4%	–	0%	–	–	–	–
–	–	–	0.74	187 to 189 °C	–	–	–	Cc1noc(/C=C/c2ccc(C(F)(F)F)cc2)c1[N+](=O)[O-] [Compound 6, (E)-3-Methyl-4-nitro-5-(4-(trifluoromethyl)styryl)isoxazole]	0.8 ± 0.1	28 ± 2%	–	–	–	–	–	–
−0.16	100	0.74	0.84	145 to 147 °C	–	–	–	Cc1noc(/C=C/c2ccco2)c1[N+](=O)[O-] [Compound 10, (E)-5-(2-(Furan-2-yl)vinyl)-3-methyl-4-nitroisoxazole]	0.36 ± 0.07	42 ± 2%	–	–	–	–	–	–
